Read-outs that look alike come from different tables or passages of the source.
Tests used:
AHR [1] = molecular target: T1, AHR (Homo sapiens, UniProt P35869); experiment: In vitro assay 2: agonism in human cell line (transactivation assay)
T1 sequence (P35869 11-848): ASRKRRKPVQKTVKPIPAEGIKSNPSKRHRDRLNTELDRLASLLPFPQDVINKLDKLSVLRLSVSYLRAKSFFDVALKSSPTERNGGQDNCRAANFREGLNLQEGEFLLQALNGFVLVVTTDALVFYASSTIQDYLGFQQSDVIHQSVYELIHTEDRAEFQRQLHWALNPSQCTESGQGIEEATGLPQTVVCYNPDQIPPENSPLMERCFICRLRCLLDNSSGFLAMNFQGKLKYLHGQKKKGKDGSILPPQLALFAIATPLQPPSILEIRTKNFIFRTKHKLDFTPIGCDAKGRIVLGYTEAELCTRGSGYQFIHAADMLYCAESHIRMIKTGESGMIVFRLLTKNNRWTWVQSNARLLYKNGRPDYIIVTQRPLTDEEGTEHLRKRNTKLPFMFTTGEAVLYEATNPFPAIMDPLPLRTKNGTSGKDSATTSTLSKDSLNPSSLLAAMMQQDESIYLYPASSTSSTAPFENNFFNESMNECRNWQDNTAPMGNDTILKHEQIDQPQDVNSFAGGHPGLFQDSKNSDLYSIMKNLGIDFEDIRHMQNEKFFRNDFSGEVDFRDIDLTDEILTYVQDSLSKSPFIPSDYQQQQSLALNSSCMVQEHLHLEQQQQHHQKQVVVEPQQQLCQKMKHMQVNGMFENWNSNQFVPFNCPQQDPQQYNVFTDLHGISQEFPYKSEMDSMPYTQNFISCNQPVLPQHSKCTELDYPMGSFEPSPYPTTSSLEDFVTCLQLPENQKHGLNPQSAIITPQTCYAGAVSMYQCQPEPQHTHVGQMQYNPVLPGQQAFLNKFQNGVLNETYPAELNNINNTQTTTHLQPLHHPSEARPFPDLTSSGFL

AHR [2] = molecular target: T1, AHR; experiment: In vitro assay 1: antagonism in human cell line (transactivation assay, kynurenic acid prestimulated); settings: Assay 1: AHR-luc Hum Antagonism IC50 [M], 150 μM kynurenic acid, 20 hours, firefly luciferase
[3] = system: AHR-regulated gene CYP1A1; experiment: In vitro assay 3: AHR-regulated CYP1A1 expression in human cell line (U937, qPCR)
Method: In Vitro Assay 3: AHR-Regulated CYP1A1 Expression in Human Cell Line
To assess the AHR inhibitory activity of the substances described in this application, the ability thereof to antagonise ligand-induced AHR gene regulation in a dose-dependent manner was quantified. For this purpose, quantitative PCR analysis was used to determine expression of the AHR-regulated gene CYP1A1 in a human monocytic U937 cell line upon stimulation with 200 μM KA in the presence and absence of AHR inhibitor. U937 cells were sown at a concentration of 2×10^5 cells/well in 100 ul of growth medium (RPMI 1640, 20% FCS) in 96-well microtitre plates. CYP1A1 expression was induced with 200 μM KA (positive control) in the presence or absence of the substances for 6 hours. Human U937 cells were typically incubated with eight different concentrations of the substances (1 nM, 3 nM, 10 nM, 30 nM, 100 nM, 300 nM, 1 μM and 3 μM) and analyzed in duplicate on the same microtitre plate. After stimulation, cells were lysed with Nucleic Acid Lysis Solution (#4305895, Applied Biosystems) and RNA was isolated using the 6100 Nucleic Acid Preparation Station (Applied Biosystems) and reverse-transcribed to cDNA using SuperScript VILO cDNA synthesis kit (#11754-250, Invitrogen). Unstimulated cells were used as the negative control. Taqman probes for human CYP1A1 (Hs01054797_g1) and human HPRT (Hs02800695_m1) were used to analyze fold expression of CYP1A1 of HPRT. Quantitation was performed on a Taqman SDS7900HT.

[4] = Assay 2: AHR-luc Hum Agonism IC50 [M], no kynurenic acid, 20 hours, firefly luciferase
[5] = read-out: Assay 3: Hum CYP1A1 Antagonism IC50, U937 cells, 200 μM KA, 6 hours, qPCR
[6] = Homo sapiens, U-937, 6 h, read-out: Assay 3: Hum CYP1A1 Antagonism IC50 [M], U937 cells, 200 μM KA, 6 hours, qPCR
[7] = read-out: Assay 2: AHR-luc Hum Agonism IC50, no kynurenic acid, 20 hours, firefly luciferase

Structure (SMILES) | IC50 (AHR [1]; [4]) | IC50 (AHR [2]) | IC50 [3, 5] | IC50 [3, 6] | IC50 (AHR [1]; [7])
CC(NC(=O)c1cc(-c2ccc(C(F)(F)F)cc2)nn(-c2cccc(F)c2)c1=O)C(O)C(F)(F)F (single isomer, unassigned) [Example 270, Isomer no. 3 of 2-(3-fluorophenyl)-3-oxo-N-(4,4,4-trifluoro-3-hydroxybutan-2-yl)-6-[4-(trifluoromethyl)phenyl]-2,3-dihydropyridazine-4-carboxamide] | > 2e-05 M | 6.12e-09 M | 5.44e-09 M |  | 
CC(NC(=O)c1cc(-c2ccc(C(F)(F)F)cc2)nn(-c2cccc(F)c2)c1=O)C(O)C(F)(F)F (single isomer, unassigned) [Example 271, Isomer no. 4 of 2-(3-fluorophenyl)-3-oxo-N-(4,4,4-trifluoro-3-hydroxybutan-2-yl)-6-[4-(trifluoromethyl)phenyl]-2,3-dihydropyridazine-4-carboxamide] | > 2e-05 M | 2.06e-08 M | 3.01e-08 M |  | 
O=C(N[C@@H]1CCCC(F)(F)[C@H]1O)c1cc(-c2ccc(Cl)cc2)nn(-c2cccc(F)c2)c1=O (single isomer, unassigned) [Example 275, 6-(4-Chlorophenyl)-N-[(trans)-3,3-difluoro-2-hydroxycyclohexyl]-2-(3-fluorophenyl)-3-oxo-2,3-dihydropyridazine-4-carboxamide] | > 2e-05 M | 1.81e-08 M |  | 3.39e-08 M | 
O=C(NC(CO)C1CCOC1)c1cc(-c2ccc(Cl)c(F)c2)nn(-c2cccc(F)c2)c1=O (single isomer, unassigned) [Example 293, 6-(4-Chloro-3-fluorophenyl)-2-(3-fluorophenyl)-N-[2-hydroxy-1-(tetrahydrofuran-3-yl)ethyl]-3-oxo-2,3-dihydropyridazine-4-carboxamide] |  | 4.92e-08 M |  | 6.98e-08 M | > 2e-05 M
C[C@@H](CO)CNC(=O)c1cc(-c2ccc(C(F)(F)F)cc2)nn(-c2cccc(F)c2)c1=O (single isomer, unassigned) [Example 329] | > 2e-05 M | 2.8e-08 M |  | 3.22e-08 M | 
O=C(N[C@H]1CC[C@@H]1O)c1cc(-c2ccc(Cl)cc2)nn(-c2cccc(F)c2)c1=O (single isomer, unassigned) [Example 336, (+)-6-(4-chlorophenyl)-2-(3-fluorophenyl)-N-(trans-2-hydroxycyclobutyl)-3-oxo-2,3-dihydropyridazine-4-carboxamide] |  | 4.02e-08 M |  | 2e-06 M | > 2e-05 M
O=C(N[C@@H]1COC[C@@H]1O)c1cc(-c2ccc(C(F)(F)F)cc2)nn(-c2cccc(F)c2)c1=O (single isomer, unassigned) [Example 344, (+)-2-(3-fluorophenyl)-N-(cis-4-hydroxytetrahydrofuran-3-yl)-3-oxo-6-[4-(trifluoromethyl)phenyl]-2,3-dihydropyridazine-4-carboxamide] | > 2e-05 M | 5.84e-09 M | 1.85e-08 M |  | 
O=C(N[C@@H]1COC[C@@H]1O)c1cc(-c2ccc(C(F)(F)F)cc2)nn(-c2cccc(F)c2)c1=O (single isomer, unassigned) [Example 345, (−)-2-(3-fluorophenyl)-N-(cis-4-hydroxytetrahydrofuran-3-yl)-3-oxo-6-[4-(trifluoromethyl)phenyl]-2,3-dihydropyridazine-4-carboxamide] |  | 1.58e-08 M | 5.4e-08 M |  | > 2e-05 M
CC(CCO)NC(=O)c1cc(-c2ccc(C(F)(F)F)cc2)nn(-c2cccc(F)c2)c1=O (single isomer, unassigned; (+)) [Example 254, (+)-2-(3-Fluorophenyl)-N-(4-hydroxybutan-2-yl)-3-oxo-6-[4-(trifluoromethyl)phenyl]-2,3-dihydropyridazine-4-carboxamide] | > 2e-05 M | 1.1e-08 M | 3.01e-08 M |  | 
